The record followed here is patent US9050341B2, “Methods of treating drug resistant and other tumors by administering 6,7-dialkoxy quinazoline derivatives” (NATCO PHARMA LIMITED, priority 2009, dated 2015).

In one data set the target is T1, PKAC-beta (Homo sapiens, UniProt P22694).
T1 construct: purchased Ambit Biosciences Corp (KinomeScan); host or cells: E. coli host derived from BL21, infected with T7 phage
Briefly: KinomeScan kinase profiling. It is filed as binding.

Another data set concerns the target T2, MUSK (Homo sapiens, UniProt O15146).
T2 construct: host or cells: T7 phage in E. coli host derived from BL21
Briefly: KinomeScan kinase profiling. Format: binding.

The target of another data set is T3, MLK3 (Homo sapiens, UniProt Q16584).
T3 construct: host or cells: T7 phage in E. coli host derived from BL21
Briefly: KinomeScan kinase profiling. Format: binding.

In the next data set the target is T4, DCAMKL2 (Homo sapiens, UniProt Q8N568).
T4 construct: purchased Ambit Biosciences Corp (KinomeScan); host or cells: T7 phage in E. coli host derived from BL21
Briefly: KinomeScan kinase profiling. Format: binding.

For the next data set, the target named is T5, ROS1 (Homo sapiens, UniProt P08922).
T5 construct: host or cells: E. coli host derived from BL21, T7 phage lysate
Briefly: KinomeScan kinase profiling. It is filed as binding.

The next data set deals with T6, FGFR1 (Homo sapiens, UniProt P11362).
T6 construct: host or cells: E. coli host derived from BL21, infected with T7 phage
Briefly: KinomeScan kinase profiling. Format: binding.

Another data set has as its target T7, AKT2 (Homo sapiens, UniProt P31751).
T7 construct: host or cells: E. coli host derived from BL21 (T7 phage lysate)
Briefly: KinomeScan kinase profiling. It is filed as binding.

A further data set deals with T8, PRKCD (Homo sapiens, UniProt Q05655).
T8 construct: purchased Ambit Biosciences Corp (KinomeScan); host or cells: E. coli host derived from BL21, infected with T7 phage
Briefly: KinomeScan kinase profiling. Format: binding.

In a further data set the target is T9, CAMK2B (Homo sapiens, UniProt Q13554).
T9 construct: purchased Ambit Biosciences Corp (KinomeScan); host or cells: E. coli host derived from the BL21 strain, T7 phage
Briefly: KinomeScan kinase profiling. Format: binding.

In another data set the target is T10, DMPK2 (Homo sapiens, UniProt Q6DT37).
T10 construct: purchased Ambit Biosciences Corp (KinomeScan); host or cells: T7 phage in E. coli host derived from BL21
Briefly: KinomeScan kinase profiling. Format: binding.

The next data set has as its target T11, PKAC-alpha (Homo sapiens, UniProt P17612).
T11 construct: purchased Ambit Biosciences Corp (KinomeScan); host or cells: E. coli host derived from BL21, infected with T7 phage
Briefly: KinomeScan kinase profiling. Format: binding.

The next data set concerns the target T12, ABL1 (T315I) (Homo sapiens, UniProt P00519, T315I).
T12 construct: host or cells: E. coli host derived from BL21 (T7 phage lysate)
Briefly: KinomeScan kinase profiling. Format: binding.

The target of the next data set is T13, MAPKAPK5 (Homo sapiens, UniProt Q8IW41).
T13 construct: host or cells: E. coli derived from BL21, infected with T7 phage
Briefly: KinomeScan kinase profiling. It is filed as binding. The method in brief:
(§1)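 Kinases were expressed as T7 phage fusions in a BL21-derived E. coli host and the cleared lysates were used. Ligand beads were blocked with biotin and buffer (1% BSA, 0.05% Tween 20, 1 mM DTT). Compounds came from 40× DMSO stocks, and phage in the eluates was titred by qPCR.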

Another data set has as its target T14, ABL1 (H396P) (Homo sapiens, UniProt P00519, H396P).
T14 construct: host or cells: E. coli host derived from BL21 (T7 phage lysate)
Briefly: KinomeScan kinase profiling. Format: binding. The method in brief:
as §1

The next data set addresses T15, CDK9 (Homo sapiens, UniProt P50750).
T15 construct: host or cells: T7 phage in E. coli (BL21-derived)
Briefly: KinomeScan kinase profiling. Format: binding.

The next data set has as its target hERG channel (Homo sapiens, UniProt Q12809). Briefly: hERG whole cell patch-clamp in CHO cells. The note with it: 10 μM. On the technique in general: Block of hERG is tested as a sign of cardiac risk.
The next data set has as its target T16, ERK2 (Homo sapiens, UniProt P28482).
T16 construct: host or cells: E. coli host derived from BL21, T7 phage lysate
Briefly: KinomeScan kinase profiling. Format: binding.

The target of a further data set is T17, PDPK1 (Homo sapiens, UniProt O15530).
T17 construct: host or cells: E. coli host derived from the BL21 strain, infected with T7 phage
Briefly: KinomeScan kinase profiling. It is filed as binding.

In a further data set the target is T18, ACVRL1 (Homo sapiens, UniProt P37023).
T18 construct: host or cells: E. coli host derived from BL21 (T7 phage lysate)
Briefly: KinomeScan kinase profiling. It is filed as binding.

A further data set concerns the target T19, CSNK1G3 (Homo sapiens, UniProt Q9Y6M4).
T19 construct: purchased Ambit Biosciences Corp (KinomeScan); host or cells: T7 phage in E. coli host derived from BL21
Briefly: KinomeScan kinase profiling. Format: binding.

The next data set has as its target T20, DYRK1B (Homo sapiens, UniProt Q9Y463).
T20 construct: purchased Ambit Biosciences Corp (KinomeScan); host or cells: T7 phage in E. coli host derived from BL21
Briefly: KinomeScan kinase profiling. It is filed as binding.

In another data set the target is T21, YES (Homo sapiens, UniProt P07947).
T21 construct: purchased Ambit Biosciences Corp (KinomeScan); host or cells: E. coli host derived from the BL21 strain (T7 phage lysate)
Briefly: KinomeScan kinase profiling. Format: binding.

T13 sequence (Q8IW41 whole entry): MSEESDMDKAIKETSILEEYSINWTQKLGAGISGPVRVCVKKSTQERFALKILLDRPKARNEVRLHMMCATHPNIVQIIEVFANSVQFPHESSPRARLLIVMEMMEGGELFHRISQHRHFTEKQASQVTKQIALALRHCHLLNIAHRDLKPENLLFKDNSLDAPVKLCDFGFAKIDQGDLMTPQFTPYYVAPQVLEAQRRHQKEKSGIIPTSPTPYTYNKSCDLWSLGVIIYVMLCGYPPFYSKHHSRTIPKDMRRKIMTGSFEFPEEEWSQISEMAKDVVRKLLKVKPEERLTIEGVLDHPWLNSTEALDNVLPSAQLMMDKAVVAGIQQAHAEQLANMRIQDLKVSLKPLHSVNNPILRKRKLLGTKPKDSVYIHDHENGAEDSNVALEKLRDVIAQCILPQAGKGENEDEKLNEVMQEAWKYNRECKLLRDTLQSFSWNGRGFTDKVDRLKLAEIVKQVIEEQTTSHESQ
T7 sequence (P31751 whole entry): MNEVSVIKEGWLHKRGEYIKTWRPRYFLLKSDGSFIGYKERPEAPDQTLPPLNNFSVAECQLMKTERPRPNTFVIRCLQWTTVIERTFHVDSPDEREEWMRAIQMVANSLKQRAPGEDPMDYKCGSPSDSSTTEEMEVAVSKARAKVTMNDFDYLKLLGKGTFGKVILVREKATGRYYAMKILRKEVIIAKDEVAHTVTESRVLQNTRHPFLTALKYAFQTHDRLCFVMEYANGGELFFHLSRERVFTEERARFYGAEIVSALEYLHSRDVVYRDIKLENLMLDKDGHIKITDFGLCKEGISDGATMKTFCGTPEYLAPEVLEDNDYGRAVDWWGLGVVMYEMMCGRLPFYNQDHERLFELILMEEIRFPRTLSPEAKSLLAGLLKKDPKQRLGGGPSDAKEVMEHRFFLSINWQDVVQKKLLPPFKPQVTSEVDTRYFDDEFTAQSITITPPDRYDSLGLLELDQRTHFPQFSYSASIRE
T6 sequence (P11362 22-822): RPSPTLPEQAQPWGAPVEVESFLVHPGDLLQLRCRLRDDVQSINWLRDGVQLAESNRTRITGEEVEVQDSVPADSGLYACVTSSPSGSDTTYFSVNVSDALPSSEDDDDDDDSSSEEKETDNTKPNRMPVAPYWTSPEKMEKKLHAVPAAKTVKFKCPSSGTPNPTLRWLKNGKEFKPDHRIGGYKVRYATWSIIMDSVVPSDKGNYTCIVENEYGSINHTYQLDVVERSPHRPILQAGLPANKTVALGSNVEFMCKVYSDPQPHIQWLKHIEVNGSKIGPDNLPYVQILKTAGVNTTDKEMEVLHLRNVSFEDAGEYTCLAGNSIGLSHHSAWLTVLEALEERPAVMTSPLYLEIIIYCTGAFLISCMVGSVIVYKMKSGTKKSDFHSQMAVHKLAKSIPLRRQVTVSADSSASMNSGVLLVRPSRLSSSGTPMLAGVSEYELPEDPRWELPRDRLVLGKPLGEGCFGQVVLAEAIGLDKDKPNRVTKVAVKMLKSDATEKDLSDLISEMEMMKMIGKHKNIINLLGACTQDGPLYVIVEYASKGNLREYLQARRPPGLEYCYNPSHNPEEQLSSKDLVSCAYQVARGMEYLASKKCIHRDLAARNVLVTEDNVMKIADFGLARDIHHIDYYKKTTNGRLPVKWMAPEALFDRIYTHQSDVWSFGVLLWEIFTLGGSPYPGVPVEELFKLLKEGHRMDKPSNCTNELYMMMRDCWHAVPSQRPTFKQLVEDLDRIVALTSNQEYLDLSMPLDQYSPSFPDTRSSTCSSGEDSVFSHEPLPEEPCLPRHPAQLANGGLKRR
Chain of hERG channel (Q12809 whole entry): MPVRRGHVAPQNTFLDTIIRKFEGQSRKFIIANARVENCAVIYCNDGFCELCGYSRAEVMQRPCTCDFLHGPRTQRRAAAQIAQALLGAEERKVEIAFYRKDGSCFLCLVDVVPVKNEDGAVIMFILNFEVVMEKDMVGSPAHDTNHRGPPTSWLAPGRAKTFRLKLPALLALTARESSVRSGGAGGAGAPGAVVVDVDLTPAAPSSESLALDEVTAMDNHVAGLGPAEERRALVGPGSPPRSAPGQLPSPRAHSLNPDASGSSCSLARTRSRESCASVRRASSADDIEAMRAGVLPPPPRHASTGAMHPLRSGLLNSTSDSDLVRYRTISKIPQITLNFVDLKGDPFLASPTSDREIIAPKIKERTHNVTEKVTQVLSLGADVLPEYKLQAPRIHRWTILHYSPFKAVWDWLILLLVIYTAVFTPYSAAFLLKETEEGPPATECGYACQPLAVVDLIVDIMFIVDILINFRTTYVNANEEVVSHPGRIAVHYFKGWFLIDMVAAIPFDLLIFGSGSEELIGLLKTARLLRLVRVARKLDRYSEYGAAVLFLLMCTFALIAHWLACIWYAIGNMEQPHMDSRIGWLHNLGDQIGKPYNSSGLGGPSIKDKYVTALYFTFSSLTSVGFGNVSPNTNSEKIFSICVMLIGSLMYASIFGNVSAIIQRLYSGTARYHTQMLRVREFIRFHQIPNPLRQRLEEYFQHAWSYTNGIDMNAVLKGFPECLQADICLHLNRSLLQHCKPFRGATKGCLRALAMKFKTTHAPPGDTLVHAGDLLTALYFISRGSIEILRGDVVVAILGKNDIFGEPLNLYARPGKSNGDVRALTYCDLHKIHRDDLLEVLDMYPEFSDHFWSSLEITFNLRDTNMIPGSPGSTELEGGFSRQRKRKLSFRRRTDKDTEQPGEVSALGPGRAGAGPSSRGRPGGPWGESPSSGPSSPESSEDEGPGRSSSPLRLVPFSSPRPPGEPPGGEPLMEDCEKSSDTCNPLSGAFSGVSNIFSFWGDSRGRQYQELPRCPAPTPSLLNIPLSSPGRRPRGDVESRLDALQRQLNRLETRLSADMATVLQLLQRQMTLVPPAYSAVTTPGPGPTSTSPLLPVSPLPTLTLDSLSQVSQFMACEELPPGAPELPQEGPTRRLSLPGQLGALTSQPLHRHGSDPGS
T3 sequence (Q16584 whole entry): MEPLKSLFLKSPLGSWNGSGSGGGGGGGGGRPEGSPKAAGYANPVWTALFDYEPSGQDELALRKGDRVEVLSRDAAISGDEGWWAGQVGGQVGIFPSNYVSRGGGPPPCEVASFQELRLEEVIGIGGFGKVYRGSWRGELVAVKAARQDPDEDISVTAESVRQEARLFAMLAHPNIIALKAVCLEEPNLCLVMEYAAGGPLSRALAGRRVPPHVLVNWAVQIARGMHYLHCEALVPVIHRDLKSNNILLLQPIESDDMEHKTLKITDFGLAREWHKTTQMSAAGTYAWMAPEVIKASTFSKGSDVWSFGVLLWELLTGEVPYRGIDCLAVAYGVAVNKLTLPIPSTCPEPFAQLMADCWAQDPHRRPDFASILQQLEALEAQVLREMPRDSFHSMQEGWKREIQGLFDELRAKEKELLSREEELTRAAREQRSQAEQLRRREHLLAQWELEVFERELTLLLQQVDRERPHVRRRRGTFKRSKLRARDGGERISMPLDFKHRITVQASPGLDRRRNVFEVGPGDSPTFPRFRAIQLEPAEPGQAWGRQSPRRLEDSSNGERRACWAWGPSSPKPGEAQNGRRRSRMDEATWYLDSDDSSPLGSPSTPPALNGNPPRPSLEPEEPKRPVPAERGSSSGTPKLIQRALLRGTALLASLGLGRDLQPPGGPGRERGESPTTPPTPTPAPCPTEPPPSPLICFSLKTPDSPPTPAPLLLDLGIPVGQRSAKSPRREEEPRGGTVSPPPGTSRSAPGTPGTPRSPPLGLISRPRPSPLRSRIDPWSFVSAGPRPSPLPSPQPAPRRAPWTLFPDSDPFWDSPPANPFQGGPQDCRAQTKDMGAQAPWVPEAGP
T21 sequence (P07947 whole entry): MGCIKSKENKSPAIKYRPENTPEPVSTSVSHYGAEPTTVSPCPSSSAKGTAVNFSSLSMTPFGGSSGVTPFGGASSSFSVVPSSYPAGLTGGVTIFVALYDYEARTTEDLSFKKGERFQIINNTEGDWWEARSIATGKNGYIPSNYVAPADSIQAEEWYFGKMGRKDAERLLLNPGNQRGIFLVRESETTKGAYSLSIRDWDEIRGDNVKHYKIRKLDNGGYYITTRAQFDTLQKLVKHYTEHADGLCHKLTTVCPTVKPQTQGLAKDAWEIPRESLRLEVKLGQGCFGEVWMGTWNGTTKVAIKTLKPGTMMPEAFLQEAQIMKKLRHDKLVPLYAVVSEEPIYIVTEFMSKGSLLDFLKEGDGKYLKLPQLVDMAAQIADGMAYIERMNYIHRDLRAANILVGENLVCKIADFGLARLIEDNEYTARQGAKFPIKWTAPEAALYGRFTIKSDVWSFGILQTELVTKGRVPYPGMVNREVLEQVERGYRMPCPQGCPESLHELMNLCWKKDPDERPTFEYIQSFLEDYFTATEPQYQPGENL
T16 sequence (P28482 whole entry): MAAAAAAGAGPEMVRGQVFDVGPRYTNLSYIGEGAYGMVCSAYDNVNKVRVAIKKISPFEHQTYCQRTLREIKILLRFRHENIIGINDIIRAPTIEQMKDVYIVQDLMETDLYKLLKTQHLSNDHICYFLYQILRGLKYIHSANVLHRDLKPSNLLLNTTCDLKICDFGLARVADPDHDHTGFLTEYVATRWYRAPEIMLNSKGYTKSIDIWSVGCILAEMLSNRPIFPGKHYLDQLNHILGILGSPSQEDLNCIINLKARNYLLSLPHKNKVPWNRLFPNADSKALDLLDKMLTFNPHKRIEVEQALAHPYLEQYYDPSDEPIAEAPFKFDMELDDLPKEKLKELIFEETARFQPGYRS
T15 sequence (P50750 whole entry): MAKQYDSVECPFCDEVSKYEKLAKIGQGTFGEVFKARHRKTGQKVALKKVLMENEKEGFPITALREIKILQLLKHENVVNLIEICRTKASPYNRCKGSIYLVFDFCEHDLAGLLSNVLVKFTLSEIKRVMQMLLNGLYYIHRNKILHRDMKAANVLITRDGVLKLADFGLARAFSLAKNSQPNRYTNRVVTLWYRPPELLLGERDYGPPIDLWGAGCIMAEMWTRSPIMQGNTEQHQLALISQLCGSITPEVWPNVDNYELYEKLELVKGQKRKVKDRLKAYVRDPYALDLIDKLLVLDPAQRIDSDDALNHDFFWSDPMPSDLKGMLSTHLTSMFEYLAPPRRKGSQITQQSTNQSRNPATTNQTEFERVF
Description for hERG channel: The test compound was evaluated at 10 μM in 0.1% DMSO (v/v). […] The vehicle control was 0.1% (v/v) DMSO in EC solution.
The selection medium was F-12 (Ham)+GlutaMAX, Ph 7.2, 10% FBS, Penicillin (100 U/mL), Streptomycin (100 μg/mL), Blasticidin S HCL (30 μg/mL) and Hygromycin B (400 μg/mL). The growth medium was F-12 (Ham)+GlutaMAX, 10% FBS, Penicillin (100 U/mL) and Streptomycin (100 μg/mL). The induction medium was F-12 (Ham)+GlutaMAX, 10% FBS, Penicillin (100 U/mL) and Streptomycin (100 μg/mL) and Doxycycline (3 μg/mL). The cell dissociation solution was 0.05% Trypsin-EDTA.

In the case of `C#Cc1cccc(Nc2ncnc3cc(OC)c(OCCCN4CCOCC4)cc23)c1` [NRC-2694, N-(3-ethylnylphenyl)-7-methoxy-6-[3-(4-morpholinyl)propoxy]-4-quinazolinamine], the “% Ctrl @ 10000 nM” value at PKAC-beta worked out at 88 % Ctrl; on MUSK, 100 % Ctrl; at MLK3 it was 72 % Ctrl; on DCAMKL2, 69 % Ctrl; at ROS1 it was 46 % Ctrl; at FGFR1 it was 64 % Ctrl. Moreover, the “% Ctrl @ 10000 nM” value at AKT2 amounted to 100 % Ctrl; on PRKCD, 84 % Ctrl; on CAMK2B, 77 % Ctrl; at DMPK2, 61 % Ctrl; on PKAC-alpha it was 100 % Ctrl; on ABL1 (T315I), 35 % Ctrl. Moreover, the “% Ctrl @ 10000 nM” value stood at 79 % Ctrl at MAPKAPK5; 34 % Ctrl at ABL1 (H396P); 86 % Ctrl at CDK9; 100 % Ctrl on ERK2; 94 % Ctrl at PDPK1; 91 % Ctrl on ACVRL1. Also, the “% Ctrl @ 10000 nM” value is listed as 61 % Ctrl on CSNK1G3, 66 % Ctrl at DYRK1B and 41 % Ctrl on YES. Besides, on hERG channel, the “hERG channel, conclusion” value is reported as “an inhibitor of the hERG channel”.
